The results in this text go back to patent US11559565B2, “Methods for treating inflammatory disorders and traumatic brain injury using stabilized non-hematopoietic EPO short peptides” (United States Government as Represented By The Department …, priority 2005, dated 2023).

No end group written: not given here.

One data set has as its system TBI mice. The data set can be described thus: Simple Neuroassessment of Asymmetric Impairment (SNAP) after traumatic brain injury. In kind it is in vivo, C57BL/6 mice. The settings on record: 10 days post-injury, versus vehicle treated TBI mice. The method, then:
SNAP is a scoring system, based on six tests, developed and validated to assess neurological deficits induced in a mouse model of traumatic brain injury. Mice are evaluated to assess neurological parameters for: (1) interaction with a handler, (2) cage grasp, (3) visual placing, (4) pacing/circling, (5) posture and head tilt, and (6) the baton test. The results from each of the six tests are summed to derive the overall SNAP score. SNAP scores are high when asymmetric deficits are apparent; thus, a neurologically intact animal would be expected to have a SNAP score of “0.” SNAP allows for ambiguous results (for example, a score of ‘1’) and test scores of 2 to 5 are assigned when asymmetric deficits were apparent. In addition, a range is allowed when the deficit appears to span more than one definition for a test score; ranges then are averaged to derive the test score (for example, a range of 2 to 3 would be scored as 2.5 for that test). […]
An uninjured mouse would ambulate in a random pattern (for example, turning either to the right or turning to the left when facing a corner). An injured mouse was expected to ambulate in a consistent pattern (for example, consistently turn toward one direction, and not be readily coaxed in the opposite direction). […]
The effect of JM-4 peptide therapy on neurologic deficits (SNAP scores) was evaluated 10 days post-injury by blinded observers.

Data set [1] relates to brain injured mice (controlled cortical impact). The data set can be described thus: Summed area containing TUNEL positive cells within the lesioned hemisphere. In kind it is in vivo, C57BL/6 mice. The settings on record: 3 days post-injury. The method, then: The effect of JM-4 peptide therapy on the summed area containing TUNEL positive cells within the lesioned hemisphere was evaluated 3 days post-injury. In this experiment, the same TUNEL stained sections (from Example 5) used to quantify the number of TUNEL positive cells were used to quantify the total area containing dying cells within the injured hemisphere.

In a further data set the test system is EAE in SJL/J mice. The data set can be described thus: PLP antigen-induced relapsing-remitting EAE, clinical score. In kind it is in vivo. The method, then: JM-4 peptide rapidly reduces neurologic deficit in EAE mice. […] Mice first were immunized with a suboptimal dose of PLP antigen (100 μg) on day 0; the mice developed clinical deficits, and were allowed to recover for about 21 days. Recovered EAE mice received 7 days of treatment with either cyclic JM-4 peptide (i.v. 250 ng/kg) or PBS (i.v.) before receiving a second PLP antigen immunization (100 μg).

On the set-up of data set [2]: species or system SJL/J mice. The conditions noted are these: mouse, in vivo. The method, then:
An EAE model was established in strain SJL/J mice that is characterized by a relapsing-remitting clinical course. Briefly, mice were immunized subcutaneously at the tail base with 100 μl (200 μg) myelin oligodendrocyte glycoprotein (MOG) peptide dissolved in distilled water and emulsified with an equal volume of complete Freund's adjuvant supplemented with 4 mg/ml Mycobacterium tuberculosis H37Ra. Immediately after immunization, animals received an intravenous injection of 200 ng Bordetella pertussis toxin in 200 μl PBS. Animals were weighed daily and assessed for clinical signs of EAE by two independent observers.
Five mice per group were given either daily i.v. full length EPO (50-500 U/kg) or short EPO-peptide JM-4 peptide (250-500 μg/kg; 5-10 μg/mouse) in PBS, or PBS alone for 9 to 14 days. Blood was collected for 5 weeks to document changes in hematocrit.
Hematocrit can be determined by centrifuging heparinized blood in a capillary tube (microhematocrit tube) at 10,000 rpm for 5 minutes. This separates the blood into layers. The volume of packed red blood cells, divided by the total volume of the blood sample gives the packed cell volume (PCV). Because a tube is used, this can be calculated by measuring the lengths of the layers.

Data set [3] concerns acutely symptomatic EAE animals. The data set can be described thus: JM-4 peptide therapy on acutely symptomatic EAE animals. In kind it is in vivo. The settings on record: 4 days of therapy. The text has this: The effect of JM-4 peptide therapy on acutely symptomatic EAE animals was studied. Five sham-treated animals with EAE were compared to five EAE animals that had received 4 days of therapy with JM-4 peptide. The sham-treated animals were barely capable of moving their heads with marked four limb weakness. […] The JM-4 peptide treated animals have some neurologic residua (they have a waddling gait and their tails drag).

The subject of data set [4] is PLP antigen-induced symptomatic SJL/J EAE mice. The data set can be described thus: Spinal cord pathology in EAE mice (mononuclear infiltration, SMI-32 staining). In kind it is in vivo. The settings on record: treated 7 days. The protocol: Groups of PLP antigen-induced symptomatic SJL/J EAE mice were treated with either JM-4 peptide or PBS for 7 days, and spinal cords were removed for pathologic examination.
Monoclonal antibody (SMI-32) (Sternberger Monoclonal Antibodies, Lutherville, Md.) that reacts with a nonphosphorylated epitope in neurofilament H-was used. The reaction is masked when the epitope is phosphorylated. Briefly, frozen tissue sections (16 μm) were acetone-fixed for 10 minutes and air dried. Antigen retrieval was performed using 1× Target Unmasking Fluid (TUF) (Zymed Laboratories, San Francisco, Calif.). Slides were reacted with TUF at 95° C. for 10 minutes, then at room temperature (25° C.) for 10 minutes. SMI-32 primary antibody was diluted (1:5000) with 2% normal horse serum in PBS (1×) and reacted overnight at 4° C. Additional slides were processed without the primary antibody to provide an appropriate control. Slides then were washed twice with PBS (1×) for 3 minutes each wash, and reacted with a biotinylated anti-mouse antibody (Vector Laboratories, Burlingame, Calif.). The slides were washed twice (PBS (1×), 3 minutes each wash), reacted with an avidin-biotin/horseradish peroxidase complex (Vector Laboratories, Burlingame, Calif.) for 30 minutes at room temperature, and washed (PBS (1×), 3 minutes). Slides were visualized with Tyramide signal amplification/Cyanine-3 dye (Perkin Elmer, Waltham, Mass.) at 1:200 dilution in amplification buffer (Perkin Elmer, Waltham, Mass.). Slides then were mounted in glycerol and examined by fluorescence microscopy.
Acute axonal injury in spinal long tract was assessed by SMI-32 staining for nonphosphorylated neurofilaments (FIG. 3, black DAB staining, bottom 2 panels).

Data set [5] concerns brain injured mice (controlled cortical impact). The data set can be described thus: Controlled cortical impact traumatic brain injury, TUNEL positive cells in the injured hemisphere. The conditions noted are these: for number of dying (TUNEL positive) cells: i.p. within 30 minutes of trauma for 3 days, both 3 and 8 days post injury, p<0.001 and p<0.01.
Source text: C57BL/6 mice were anesthetized with isofurane/oxygen inhalation and placed in a stereotaxic frame. The head position was established in the horizontal plane and a craniotomy (4 mm) was produced lateral to the sagittal suture between lambda and bregma, with the dura mater left intact over the cortex. A cortical contusion injury was produced utilizing a pneumatically driven 2.5 mm diameter rod tip at 3.5 m/s to a depth of 1 mm with a dwell time of 400 ms (Precision System Instruments TBI-0300 Impactor, Lexington, Ky.). After injury, a 5 mm disk constructed from dental cement was placed over the craniotomy site and adhered to the skull using cyanocrylate. During the early post-operative phase, animal temperature was maintained by placing the animals on heating pads.
Mice in the whole molecule EPO group received 5000 U/kg body weight rhEPO (Epoetin alpha, Amgen, Thousand Oaks, Calif.) intraperitoneally (i.p.). […] Mice in the PBS and sham-operated groups received 200 μl filtered sterile PBS.
Mice were sacrificed at 3 days or 8 days post-injury; brains were collected and immediately frozen on dry ice. The frozen brains were serially sectioned in coronal cuts onto 15 slides with 12 sections (16 μm thickness) per slide extending from the anterior to the posterior edge of the lesion. Sections were placed such that each individual slide contained a representative sampling of the entire lesion within the injured hemisphere.
Cell death in the mouse brains was detected using a modification of the Apoptag® (Millipore, Billerica, Mass.) in situ TUNEL method. Cryosections (16 μm thickness) were mounted and fixed in 100% acetone for 10 minutes. The slides were rehydrated and post-fixed in 2:1 ethanol:acetic acid for 11 minutes at −20° C., and then washed thoroughly in Stop/Wash Buffer (Apoptag®). Slides were incubated with equilibration buffer for 10 minutes immediately followed by working strength TdT enzyme (33 parts enzyme/77 parts buffer (Apoptag®)) for 60 minutes at 37° C. The TUNEL reaction was detected with Cy3 anti-digox (1:200; Jackson Immunoresearch, West Grove, Pa.).
Micrographs of the processed slides were acquired with a fluorescent Olympus BX60 microscope fitted with a Retiga 2000R digital camera at 10 times magnification. The total number of TUNEL positive cells in lesioned hemispheres and the total area of the brain containing the TUNEL positive cells were quantified using digital imaging software (I.P. lab 4.0, Becton Dickinson, Franklin Lakes, N.J.).
The animals were sacrificed after 3 or 8 days and the injured forebrain lesions were serially sectioned. Cell death within the damaged hemisphere was quantified by DNA fragmentation (TUNEL stain) to determine the degree of neuroprotection. Serial sections containing the entire lesion site and the TUNEL labeled peri-lesional zone were photographed, digitized, and the images used to quantify the number of positive cells by IP lab 4.0 Software (Becton Dickinson, Franklin Lakes, N.J.).
Mice were sacrificed 3 days post-TBI. The effect of treatment delay was determined by TUNEL staining.
Data set [6] can be described thus: Deaths, clinical morbidity, blood chemistries and signs of toxicity in treated EAE mice. It counts as in vivo, SJL/J mice. The method, then: An EAE model was established in strain SJL/J mice that is characterized by a relapsing-remitting clinical course. […] Immediately after immunization, animals received an intravenous injection of 200 ng Bordetella pertussis toxin in 200 μl PBS. Animals were weighed daily and assessed for clinical signs of EAE by two independent observers.
[…] Blood was collected for 5 weeks to document changes in hematocrit.

For the substance “GCAEHCSLNENITVPDTKV (also: cyclic, mode of cyclisation not given here) [JM-4]”, in the data set with TBI mice, the “neurologic deficits (composite SNAP score)” value is listed as “significant improvement in neurologic deficits”. Further, the “lesional area containing TUNEL positive cells” value in data set [1] is recorded as “much reduced”. In data set [1] (versus PBS, p<0.001), the “reduction of lesioned volume (area)” value is listed as “greater than 50%”. For the same substance, the “clinical signs in response to the second PLP immunization” value in the data set on EAE in SJL/J mice (after 7 days i.v. 250 ng/kg, versus sham, p<0.05) is given as “less severe clinical signs at a later time”. For the same substance, the “disease severity in long term follow-up” value with EAE in SJL/J mice (after discontinuation of all therapy for 30 days, p<0.001) is “much milder disease”. The “clinical score versus sham treated (saline)” value with EAE in SJL/J mice (recovered EAE mice, 7 days i.v. 250 ng/kg, p<0.05) was “Marked clinical improvement”. Also, the “clinical score after a second seven-day treatment course” value with EAE in SJL/J mice (versus PBS sham treated animals) is “Clinical improvement again was observed”. For the same substance, in data set [2], the effect on hematocrit entry is recorded as “no effect on hematocrit”. For the same substance, the “increase in red blood cell mass” value in data set [2] is “not associated with any increase in red blood cell mass”. For the same substance, the “neurologic state versus sham-treated animals” value in data set [3] was “mobile and markedly improved”. In addition, the vacuolar changes result in data set [4] (versus PBS) was “fewer vacuolar changes”. In addition, the “white matter mononuclear infiltration” value in data set [4] (versus PBS) is “marked reduction”. Also, the “injured SMI-32 positive axons” value in data set [4] (versus sham) is listed as “far fewer injured axons”. For the same substance, the “cell death judged by TUNEL positivity” value in data set [5] (0.1 μg i.p. daily for 72 hours) is on record as “failed to significantly block cell death”; in data set [5] (1 μg i.p. daily for 72 hours) it was “failed to significantly block cell death”; in data set [5] (10 micrograms i.p. daily for 72 hours, p=0.005), “significant protected against cell death”; in data set [5] (50 micrograms i.p. daily for 72 hours, p=0.005) it was “significant protected against cell death”; in data set [5] (100 micrograms i.p. daily for 72 hours, p=0.005), “significant protected against cell death”. Further, the “reduction of neural cell death (TUNEL)” value in data set [5] (10 μg i.p., 3 days, FIG. 5A) is ~70%. The “TUNEL positive dying cells versus sham” value in data set [5] (10 μg i.p., first treatment 15 minutes post-injury) is “statistically significant neuroprotective effect”; in data set [5] (10 μg i.p., first treatment 3 hours post-injury) it was “equally effective”; in data set [5] (10 μg i.p., first treatment 9 hours post-injury), “equally effective”; in data set [5] (10 μg i.p., treatment delayed 24 hours), “Very little treatment effect”. The “neuroprotection by TUNEL” value in data set [5] (8 days, FIG. 5B) is recorded as “neuroprotective”. Moreover, the “blocking cell death compared with whole molecule EPO” value in data set [5] (JM-4 10 μg i.p. versus EPO 5000 U/kg i.p.) was “at least as effective as using whole molecule EPO”. Besides, in data set [5] (PO by gavage, 100 micrograms daily, 3 hours after injury, p=0.01), the “cell death (TUNEL-positive cells)” value is “effective blocking cell death”. The therapeutic window entry in data set [5] (following severe head trauma) is on record as “at least 9 hours”. Also, the “number of dying (TUNEL positive) cells” value in data set [5] was “dramatically reduced”. In addition, the signs of toxicity result in data set [6] (PLP EAE mice, JM-4 therapy i.v. 250 ng/kg) is listed as “nor were any signs of toxicity observed”. Besides, the blood chemistries result in data set [6] (small group treated for 7 days) is reported as “remained unaltered”.
In the case of “Epoetin Alfa [rhEPO, reference compound]”, the effect on hematocrit entry in data set [2] is listed as “increased markedly within one week”. Also, the “number of dying (TUNEL positive) cells” value in data set [5] is on record as “dramatically reduced”. Also, the “clinical signs of toxicity” value in data set [6] (SJL/J mice treated with rhEPO) was “developed red-blue ears and tails within 5 to 6 days, typically leading to death”.
